Data as given in US20220227765A1, “PYRIDO-INDOLE ANALOGUES AS GPX4 INHIBITORS” (Ferro Therapeutics, Inc., priority 2019, published 2022).
In brackets after ≈: the same amount, converted by molar mass. Like-named read-outs stand apart in the source and are kept apart here.

Legend:
[1] = Kinetic solubility (PBS, pH 7.4); format: physicochemical; conditions: for solubility kinetic: aqueous buffer, kinetic from dmso stock
[2] = Equilibrium solubility at different pHs and with SBECD; format: physicochemical; conditions: thermodynamic from solid
SJSA-1 = assay: Cell proliferation (Alamar Blue) assay, SJSA-1; format: cell-based, human; conditions: Homo sapiens, SJSA-1, 24 h
Experimental: (§1) Cell viability assay was performed to assess the potency of the compounds in human cancer cell lines 786-0 (renal cell carcinoma) and SJSA-1 (osteosarcoma). Additional cell lines, such as pancreatic cancer cell lines (Panc 02.13, BxPC-3, Panc 12, Panc 02.03, Panc 6.03, PSN-1, HPAC, and Capan-1), prostate cancer cell lines (PC-3, DU145, 22Rv1, NCI-H660, BPH1, LNCaP, BM-1604, and MDA PCa 2b), etc., can be tested in a similar method.
(§2) Cells (SJSA-1, 786-0 and A431) were seeded (5000 cells/100 μL/well) in 96-well tissue culture plate and incubated at 37° C./5% CO2 for 16-24 hours. The cells were then treated with compounds (25 μL of 5×). The compound concentrations were 10-0.0005 μM prepared in 3-fold serial dilutions with final DMSO concentration of 1%. The plates were then incubated for 24 h at 37° C./5% CO2 in a moist environment. Then Alamar Blue™ reagent (final concentration 1×-12.5 μL) was added to each well and incubated for 1.5 hours at 37° C./5% CO2. The plates were read on fluorescence reader at 540 nm excitation and 590 nm emission wavelengths. The IC50 values were subsequently determined using a sigmoidal dose-response curve (variable slope) in GraphPad Prism® 5 software. Table A-3, Table B-3 and Table C-3 show cell proliferation data for certain compounds as described herein.

786-O = assay: Cell proliferation (Alamar Blue) assay, 786-O; format: cell-based, human; conditions: Homo sapiens, 786-0, 24 h
Experimental: as §1, §2

Human blood stability = format: in vitro ADME
A431 = assay: Cell proliferation (Alamar Blue) assay, A431; format: cell-based, human; conditions: Homo sapiens, A-431, 24 h
Experimental: as §1, §2

[3] = Rat hepatocyte metabolic stability; format: in vitro ADME; conditions: for half-life / hepatocyte CLint: rat hepatocytes; for half-life: read-out: rat hepatocytes T1/2; for hepatocyte CLint: read-out: rat hepatocytes h Clintr (μL/min/10^6 cells)
[4] = Human hepatocyte metabolic stability; format: in vitro ADME; conditions: for half-life / hepatocyte CLint: human hepatocytes; for half-life: read-out: human hepatocytes T1/2; for hepatocyte CLint: read-out: human hepatocytes h Clintr (μL/min/10^6 cells)
[5] = CD-1 Mouse Whole Blood Stability Assay; format: in vitro ADME; conditions: Table B-6, incubation at 37° C.
[6] = Rat IV pharmacokinetics (2 mg/kg); format: in vivo; conditions: male, SD, plasma; for clearance: read-out: Rat IV-PK CL
Source text: Institutional Animal Ethical Committee (IAEC) of Jubilant Biosys (IAEC/JDC/2019/188R (for Mice) and IAEC/JDC/2019/189R (for Rat) nominated by CPCSEA (Committee for the Purpose of Control and Supervision of Experiments on Animals) approved the mice and rat pharmacokinetic experiments. Male Balb/c mice (˜6-8 weeks old with body weight range of 22-25 g) and male SD rats (6-8 weeks old with body weight range of 200-250 g) were procured from Vivo Biotech, Hyderabad, India. Animals were quarantined in Jubilant Biosys Animal House for a period of 7 days with a 12:12 h light: dark cycles, and prior to the study the animals were stratified as per body weight.
B) Procedure for rat: Intravenous and oral pharmacokinetics study was done at a dose 2 and 10 mg/kg at dose volume of 2 and 10 mL/Kg. Serial blood sampling was done and at each time point (˜200 μL) were collected from retro-orbital plexus at 0.083 (Only for IV), 0.25, 0.5, 1, 2, 4, 8, 10 (only for PO) and 24 h. Blood samples were collected in tubes containing K2.EDTA as anticoagulant and centrifuged for 5 min at 10,000 rpm in a refrigerated centrifuge (Biofuge, Heraeus, Germany) maintained at 4° C. for plasma separation.
Group I (IV) received test compound intravenously by tail vein at 2 mg/Kg in solution formulation prepared using 30% Kolliphore EL in WFI; dose volume: 2 mL/Kg; strength: 1 mg/mL.
Blood concentration-time data of test compound was analyzed by non-compartmental method using Phoenix WinNonlin Version 8.1.

[7] = aqueous buffer, pH 3.0 PBS buffer, read-out: Eq. solubility pH 3.0 PBS buffer
[8] = aqueous with cosolvent or surfactant or cyclodextrin, 20% SBECD (sulfobutyl ether cyclodextrin), read-out: Eq. solubility 20% SBECD
[9] = Table B-3, head prints SJSB-1, 24 h, read-out: IC50 (μM) SJSB-1

C#CC(=O)N1[C@@H](CCCC)Cc2c([nH]c3c(F)cc(F)cc23)[C@@H]1c1ccc(N2CCN(C(C)=O)CC2)c(C#N)c1 [Compound B-32]
solubility kinetic ([1]; Table B-7): < 1 µM
solubility ([2]; aqueous buffer, pH 3.0, read-out: Eq. solubility pH 3.0): < 1 µg/mL
solubility [2, 7]: < 1 µg/mL
solubility [2, 8]: 9 to 18 µg/mL (≈ 16.6 to 33.1 µM)
IC50 (SJSA-1; [9]): 0.029 µM
IC50 (786-O; Table B-3, 786-O cells): 0.018 µM

C#CC(=O)N1[C@@H](CCCC)Cc2c([nH]c3c(F)cc(F)cc23)[C@@H]1c1ccc(NC(=O)OCC)cc1 [Compound B-35]
Kinetic solubility (PBS, pH 7.4, μM) ([1]; Table B-7): <1 μM
solubility kinetic ([1]; Table B-4): < 1 µM
human blood stability % remaining (Human blood stability; 15 min): 107%_15
human blood stability % remaining (Human blood stability; 30 min): 31%_30
human blood stability % remaining (Human blood stability; 45 min): 15%_45
human blood stability % remaining (Human blood stability; 60 min): 8.4%_60
human blood stability % remaining (Human blood stability; 120 min): 0%_120
solubility [2, 8]: 10 µg/mL (≈ 20.9 µM)
IC50 (SJSA-1; [9]): 0.019 µM
IC50 (A431; Table B-3, A431 cells): 6.6 µM
rat hepatocytes extr. Ratio [3]: 0.78
rat hepatocytes % met @ 180 min [3]: 94%
half-life [3]: 1.13 h
hepatocyte CLint [3]: 41 µL/min/1e6 cells
human hepatocytes extr. Ratio [4]: 0.8
human hepatocytes % met @ 180 min [4]: 73%
half-life [4]: 1.63 h
hepatocyte CLint [4]: 28 µL/min/1e6 cells
IC50 (786-O; Table B-3, 786-O cells): 0.01 µM

C#CC(=O)N1[C@@H](CCCC)Cc2c([nH]c3c(F)cc(F)cc23)[C@@H]1C1CCN(C(=O)OC)CC1 [Compound B-28]
IC50 (SJSA-1; [9]): 0.06 µM
IC50 (A431; Table B-3, A431 cells): 8.1 µM
CD-1 Mouse Whole Blood Stability % Remaining ([5]; 0 min): 100.0%
CD-1 Mouse Whole Blood Stability % Remaining ([5]; 30 min): 9.6%
CD-1 Mouse Whole Blood Stability % Remaining ([5]; 60 min): 2.1%
IC50 (786-O; Table B-3, 786-O cells): 0.032 µM

C#CC(=O)N1[C@@H](CC2CC2)Cc2c([nH]c3ccccc23)[C@@H]1c1ccc(NC23CC4CC(CC(C4)C2)C3)cc1 [Compound B-37]
AUC(0-t) ([6]; read-out: Rat IV-PK AUC (0-t)): 346 ng·h/mL
clearance [6]: 115 mL/min/kg
half-life ([6]; read-out: Rat IV-PK T1/2): 3.3 h
Vd ([6]; read-out: Rat IV-PK Vd): 32 L/kg
solubility kinetic ([1]; Table B-4): < 1 µM
IC50 (SJSA-1; [9]): 0.004 µM
IC50 (A431; Table B-3, A431 cells): 4.6 µM
rat hepatocytes extr. Ratio [3]: 0.64
rat hepatocytes % met @ 180 min [3]: 74%
half-life [3]: 2.28 h
hepatocyte CLint [3]: 20 µL/min/1e6 cells
human hepatocytes extr. Ratio [4]: 0.58
human hepatocytes % met @ 180 min [4]: 38%
half-life [4]: 4.5 h
hepatocyte CLint [4]: 10 µL/min/1e6 cells
IC50 (786-O; Table B-3, 786-O cells): 0.001 µM

C#CC(=O)N1[C@@H](CCCC)Cc2c([nH]c3ccccc23)[C@@H]1c1ccc(C(=O)NC2CCC2)nc1 [Compound B-5, 5-((1S,3S)-3-butyl-2-propioloyl-2,3,4,9-tetrahydro-1H-pyrido[3,4-b]indol-1-yl)-N-cyclobutylpicolinamide]
solubility kinetic ([1]; Table B-4): 1 µM (≈ 0.455 µg/mL)
human blood stability % remaining (Human blood stability; 15 min): 36%_15
human blood stability % remaining (Human blood stability; 30 min): 41%_30
human blood stability % remaining (Human blood stability; 45 min): 11%_45
human blood stability % remaining (Human blood stability; 60 min): 9%_60
human blood stability % remaining (Human blood stability; 120 min): 0%_120
IC50 (SJSA-1; [9]): 0.002 µM
rat hepatocytes extr. Ratio [3]: 0.9
human hepatocytes extr. Ratio [4]: 0.82
IC50 (786-O; Table B-3, 786-O cells): 0.002 µM

C#CC(=O)N1[C@@H](CCCC)Cc2c([nH]c3ccccc23)[C@@H]1c1ccc(C(=O)NCCOC)cc1 [Compound B-3, 4-((1S,3S)-3-butyl-2-propioloyl-2,3,4,9-tetrahydro-1H-pyrido[3,4-b]indol-1-yl)-N-(2-methoxyethyl)benzamide]
clearance [6]: 348 mL/min/kg
solubility kinetic ([1]; Table B-4): 4 µM (≈ 1.83 µg/mL)
human blood stability % remaining (Human blood stability; 15 min): 90%_15
human blood stability % remaining (Human blood stability; 30 min): 55%_30
human blood stability % remaining (Human blood stability; 45 min): 36%_45
human blood stability % remaining (Human blood stability; 60 min): 22%_60
human blood stability % remaining (Human blood stability; 120 min): 1.5%_120
IC50 (SJSA-1; [9]): 0.018 µM
IC50 (A431; Table B-3, A431 cells): 4.7 µM
IC50 (786-O; Table B-3, 786-O cells): 0.009 µM

C#CC(=O)N1[C@@H](CCCC)Cc2c([nH]c3c(F)cc(F)cc23)[C@@H]1c1ccc(C#N)nc1 [Compound B-51]
IC50 (SJSA-1; [9]): 0.01 µM
IC50 (A431; Table B-3, A431 cells): 1.1 µM
CD-1 Mouse Whole Blood Stability % Remaining ([5]; 0 min): 100%
CD-1 Mouse Whole Blood Stability % Remaining ([5]; 30 min): 0%
CD-1 Mouse Whole Blood Stability % Remaining ([5]; 60 min): 0%
IC50 (786-O; Table B-3, 786-O cells): 0.07 µM

C#CC(=O)N1[C@@H](CCCC)Cc2c([nH]c3c(F)cc(F)cc23)[C@@H]1c1cnn(C)c1 [Compound B-33]
solubility [2, 7]: < 1 µg/mL
solubility [2, 8]: > 1090 µg/mL
IC50 (SJSA-1; [9]): 0.257 µM
IC50 (A431; Table B-3, A431 cells): > 10 µM
IC50 (786-O; Table B-3, 786-O cells): 0.121 µM

C#CC(=O)N1[C@@H](CCCC)Cc2c([nH]c3c(F)cc(F)cc23)[C@@H]1c1ccc(-c2nnn[nH]2)cc1 [Compound B-50]
CD-1 Mouse Whole Blood Stability % Remaining ([5]; 0 min): 100%
CD-1 Mouse Whole Blood Stability % Remaining ([5]; 30 min): 22.3%
CD-1 Mouse Whole Blood Stability % Remaining ([5]; 60 min): 10.5%

C#CC(=O)N1[C@@H](CCCC)Cc2c([nH]c3c(F)cc(F)cc23)[C@@H]1CCCCCCCC [Compound B-79]
IC50 (SJSA-1; [9]): 0.08 µM
IC50 (A431; Table B-3, A431 cells): 9.4 µM
IC50 (786-O; Table B-3, 786-O cells): 0.07 µM

C#CC(=O)N1[C@@H](CCCC)Cc2c([nH]c3c(F)cc(F)cc23)[C@@H]1c1ccc(N2CCC2)cc1 [Compound B-59]
IC50 (SJSA-1; [9]): 0.016 µM
IC50 (A431; Table B-3, A431 cells): > 10 µM
IC50 (786-O; Table B-3, 786-O cells): 0.011 µM

C#CC(=O)N1[C@@H](CCCC)Cc2c([nH]c3ccccc23)[C@@H]1c1ccc(NC2CCS(=O)(=O)CC2)cc1 [Compound B-13]
IC50 (SJSA-1; [9]): 0.018 µM
IC50 (A431; Table B-3, A431 cells): 7.2 µM
IC50 (786-O; Table B-3, 786-O cells): 0.013 µM

C#CC(=O)N1[C@@H](CCCC)Cc2c([nH]c3c(F)cc(F)cc23)[C@@H]1CCCC [Compound C-4]
IC50 (SJSA-1; Table C-3, SJSA-1 cells, 24 h, read-out: IC50 (μM) SJSA-1): 0.045 µM
IC50 (A431; Table C-3, A431 cells): 4.4 µM
IC50 (786-O; Table C-3, 786-O cells): 0.048 µM

C#CC(=O)N1[C@@H](CCCC)Cc2c([nH]c3ccccc23)[C@@H]1c1ccc(-c2nc(C)no2)cc1 [Compound B-2, 1-((1S,3S)-3-butyl-1-(4-(3-methyl-1,2,4-oxadiazol-5-yl)phenyl)-1,3,4,9-tetrahydro-2H-pyrido[3,4-b]indol-2-yl)prop-2-yn-1-one]
IC50 (SJSA-1; [9]): 0.014 µM
IC50 (A431; Table B-3, A431 cells): 3.2 µM
IC50 (786-O; Table B-3, 786-O cells): 0.006 µM

C[C@H]1Cc2c([nH]c3ncccc23)[C@@H](c2ccc(F)cc2)N1C(=O)CCl [Compound A-2]
IC50 (SJSA-1; Table A-3, SJSA-1 cells, 24 h, read-out: IC50 (μM) SJSA-1): 9.11 µM
IC50 (A431; Table A-3, A431 cells): 7.06 µM
IC50 (786-O; Table A-3, 786-O cells): 3.52 µM

C#CC(=O)N1[C@@H](CCCC)Cc2c([nH]c3ccccc23)[C@@H]1c1ccc(C(=O)NCCn2ccnc2)cc1 [Compound B-19]
IC50 (SJSA-1; [9]): 0.294 µM
IC50 (A431; Table B-3, A431 cells): > 10 µM
IC50 (786-O; Table B-3, 786-O cells): 0.367 µM

C#CC(=O)N1[C@@H](CCCC)Cc2c([nH]c3c(F)cc(F)cc23)[C@@H]1c1ccc(N2CCN(C)CC2)c(C#N)c1 [Compound B-58]
IC50 (SJSA-1; [9]): 0.15 µM
IC50 (A431; Table B-3, A431 cells): > 10 µM
IC50 (786-O; Table B-3, 786-O cells): 0.135 µM
